Legend:
[1] = test system: panel of 55 breast cancer cell lines; experiment: Cell growth inhibition assay (Cell Titer Glo, 72 h, 9 doses; GI50, TGI, LC50); assay type: cell-based, human; details: value is the negative log10 of mol/L
[2] = test system: luminal, basal, claudin-low and ERBB2AMP breast cancer cell lines; experiment: Associations of clinically relevant subtypes and response (non-parametric ANOVA or t-test on GI50 ranks); assay type: cell-based, human; details: Table 6; most sensitive subtype, FDR p<0.20
Summary of the method: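 Significance was set at FDR p<0.20 after combining p-values across three test sets. Subtype–response associations came from rank-based non-parametric ANOVA or t-tests on GI50. For three-class comparisons, post-hoc tests of each group against the rest identified the most sensitive group, with FDR correction.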

C=CCNC1=C2C[C@@H](C)C[C@H](OC)[C@H](O)[C@@H](C)/C=C(\C)[C@H](OC(N)=O)[C@@H](OC)/C=C\C=C(/C)C(=O)NC(=CC1=O)C2=O [17-AAG]
GI50 ([1]; 600MPE cell line, censored GI50 values): 6.87
GI50 ([1]; AU565 cell line, censored GI50 values): 7.25
GI50 ([1]; BT474 cell line, censored GI50 values): 7.69
GI50 ([1]; BT483 cell line, censored GI50 values): 6.65
GI50 ([1]; BT549 cell line, censored GI50 values): 7.47
GI50 ([1]; CAMA1 cell line, censored GI50 values): 6.57
GI50 ([1]; HCC38 cell line, censored GI50 values): 7.23
GI50 ([1]; HCC70 cell line, censored GI50 values): 6.62
GI50 ([1]; HCC202 cell line, censored GI50 values): 8.39
GI50 ([1]; HCC1143 cell line, censored GI50 values): 6.86
GI50 ([1]; HCC1187 cell line, censored GI50 values): 5.29
GI50 ([1]; HCC1395 cell line, censored GI50 values): 6.54
GI50 ([1]; HCC1419 cell line, censored GI50 values): 7.35
GI50 ([1]; HCC1428 cell line, censored GI50 values): 7.70
GI50 ([1]; HCC1500 cell line, censored GI50 values): 6.91
GI50 ([1]; HCC1806 cell line, censored GI50 values): 7.04
GI50 ([1]; HCC1937 cell line, censored GI50 values): 6.87
GI50 ([1]; HCC1954 cell line, censored GI50 values): 7.49
GI50 ([1]; HCC2185 cell line, censored GI50 values): 6.93
GI50 ([1]; HCC3153 cell line, censored GI50 values): 6.81
GI50 ([1]; LY2 cell line, censored GI50 values): 6.97
GI50 ([1]; MCF7 cell line, censored GI50 values): 6.25
GI50 ([1]; MDAMB134VI cell line, censored GI50 values): 7.46
GI50 ([1]; MDAMB175VII cell line, censored GI50 values): 7.54
GI50 ([1]; MDAMB231 cell line, censored GI50 values): 6.11
GI50 ([1]; MDAMB361 cell line, censored GI50 values): 7.24
GI50 ([1]; MDAMB415 cell line, censored GI50 values): 7.30
GI50 ([1]; MDAMB436 cell line, censored GI50 values): 5.96
GI50 ([1]; MDAMB453 cell line, censored GI50 values): 7.14
GI50 ([1]; MDAMB468 cell line, censored GI50 values): 5.62
GI50 ([1]; SKBR3 cell line, censored GI50 values): 7.50
GI50 ([1]; SUM44PE cell line, censored GI50 values): 8.84
GI50 ([1]; SUM52PE cell line, censored GI50 values): 7.46
GI50 ([1]; SUM149PT cell line, censored GI50 values): 7.00
GI50 ([1]; SUM159PT cell line, censored GI50 values): 7.46
GI50 ([1]; SUM185PE cell line, censored GI50 values): 7.46
GI50 ([1]; SUM1315MO2 cell line, censored GI50 values): 7.66
GI50 ([1]; UACC893 cell line, censored GI50 values): 7.90
GI50 ([1]; ZR75B cell line, censored GI50 values): 7.14
GI50 ([1]; ZR751 cell line, censored GI50 values): 6.56
GI50 ([1]; cell line 600MPE): 6.87
GI50 ([1]; cell line AU565): 7.25
GI50 ([1]; cell line BT474): 7.69
GI50 ([1]; cell line BT483): 6.65
GI50 ([1]; cell line BT549): 7.47
GI50 ([1]; cell line CAMA1): 6.57
GI50 ([1]; cell line HCC38): 7.23
GI50 ([1]; cell line HCC70): 6.62
GI50 ([1]; cell line HCC202): 8.39
GI50 ([1]; cell line HCC1143): 6.86
GI50 ([1]; cell line HCC1187): 5.29
GI50 ([1]; cell line HCC1395): 6.54
GI50 ([1]; cell line HCC1419): 7.35
GI50 ([1]; cell line HCC1428): 7.70
GI50 ([1]; cell line HCC1500): 6.91
GI50 ([1]; cell line HCC1806): 7.04
GI50 ([1]; cell line HCC1937): 6.87
GI50 ([1]; cell line HCC1954): 7.49
GI50 ([1]; cell line HCC2185): 6.93
GI50 ([1]; cell line HCC3153): 6.81
GI50 ([1]; cell line LY2): 6.97
GI50 ([1]; cell line MCF7): 6.25
GI50 ([1]; cell line MDAMB134V): 7.46
GI50 ([1]; cell line MDAMB175V): 7.54
GI50 ([1]; cell line MDAMB231): 6.11
GI50 ([1]; cell line MDAMB361): 7.24
GI50 ([1]; cell line MDAMB415): 7.30
GI50 ([1]; cell line MDAMB436): 5.96
GI50 ([1]; cell line MDAMB453): 7.14
GI50 ([1]; cell line MDAMB468): 5.62
GI50 ([1]; cell line SKBR3): 7.50
GI50 ([1]; cell line SUM44PE): 8.84
GI50 ([1]; cell line SUM52PE): 7.46
GI50 ([1]; cell line SUM149PT): 7.00
GI50 ([1]; cell line SUM159PT): 7.46
GI50 ([1]; cell line SUM185PE): 7.46
GI50 ([1]; cell line SUM1315MO): 7.66
GI50 ([1]; cell line UACC893): 7.90
GI50 ([1]; cell line ZR75B): 7.14
GI50 ([1]; cell line ZR751): 6.56
Subtype specificity [2]: Luminal/ERBB2AMP

From US10770169B2, “Method of providing a treatment to a subject based on a dynamic pathway map” (THE REGENTS OF THE UNIVERSITY OF CALIFORNIA, priority 2010, dated 2020)
